Test system: human AML MV-4-11 cells
Assay: Inhibition of cell proliferation in MV4-11 cells (CellTiter Aqueous One)
Assay type: cell-based
Settings: 72 h
Description: MV4-11 cells: 96-well plates were seeded with 5×10^4 cells per well of exponentially growing human AML MV-4-11 (CRL-9591) cells and immediately treated with two-fold dilutions of test compounds, ranging from 30 μM to 0.2 μM. Triplicate wells were used for each concentration, as well as a media only and three DMSO control wells. The cells and compounds were incubated at 37° C., 5% CO2 for 72 h before adding 20 μL of the CellTiter Aqueous One Solution (Promega) to each well and incubating at 37° C., 5% CO2 for an additional 3-4 h. The absorbance was taken at 490 nm in a spectrophotometer and the percentage of proliferation relative to DMSO-treated cells was calculated after correction from the blank well. IC50 were calculated using the GraphPad Prism software.

Row | SMILES | Cell Proliferation activity
1 | CC(=O)Oc1nc2ncn(Cc3ccc(F)cc3)c2cc1-c1c(C)noc1C [compound 80, 6-(3,5-dimethylisoxazol-4-yl)-1-(4-fluorobenzyl)-1H-imidazo[4,5-b]pyridin-5-yl acetate] | Not active
2 | Cc1noc(C)c1-c1cc2c(ncn2Cc2ccc(F)cc2)[n+]([O-])c1 [compound 79, 6-(3,5-dimethylisoxazol-4-yl)-1-(4-fluorobenzyl)-1H-imidazo[4,5-b]pyridine 4-oxide] | Not active

Same assay, conditions: MV4-11, 72 h

Row | IC50 | SMILES
3 | 300 to 3000 nM | CCNc1nc2ncc(-c3c(C)noc3C)cc2n1Cc1ccccc1 [compound 107, 1-benzyl-6-(3,5-dimethylisoxazol-4-yl)-N-ethyl-1H-imidazo[4,5-b]pyridin-2-amine]
4 | 300 to 3000 nM | Cc1noc(C)c1-c1cc(N)c2[nH]c(=O)n(CC3CC3)c2c1 [compound 161, 4-amino-1-(cyclopropylmethyl)-6-(3,5-dimethylisoxazol-4-yl)-1H-benzo[d]imidazol-2(3H)-one]

Molecular target: T1, Brd4 bromodomain 1 (BRD4(1)) (Homo sapiens, UniProt O60885)
T1 construct: made in house; host or cells: E. coli BL21(DE3)
Assay: Inhibition of tetra-acetylated histone H4 binding to Brd4 bromodomain 1 (TR-FRET)
Settings: tetra-acetylated histone H4 peptide, first bromodomain of Brd4
Description: Proteins were cloned and overexpressed with a N-terminal 6× His tag, then purified by nickel affinity followed by size exclusion chromatography. Briefly, E.coli BL21(DE3) cells were transformed with a recombinant expression vector encoding N-terminally Nickel affinity tagged bromodomains from Brd2, Brd3, Brd4. Cell cultures were incubated at 37° C. with shaking to the appropriate density and induced overnight with IPTG. The supernatant of lysed cells was loaded onto Ni-IDA column for purification. Eluted protein was pooled, concentrated and further purified by size exclusion chromatography. Fractions representing monomeric protein were pooled, concentrated, aliquoted, and frozen at −80° C. for use in subsequent experiments.
Binding of tetra-acetylated histone H4 and BET bromodomains was confirmed by a Time Resolved Fluorescence Resonance Energy Transfer (TR-FRET) method. N-terminally His-tagged bromodomains (200 nM) and biotinylated tetra-acetylated histone H4 peptide (25-50 nM, Millipore) were incubated in the presence of Europium Cryptate-labeled streptavidin (Cisbio Cat. #610SAKLB) and XL665-labeled monoclonal anti-His antibody (Cisbio Cat. #61HISXLB) in a white 96 well microtiter plate (Greiner). For inhibition assays, serially diluted test compound was added to these reactions in a 0.2% final concentration of DMSO. Final buffer concentrations were 30 mM HEPES pH 7.4, 30 mM NaCl, 0.3 mM CHAPS, 20 mM phosphate pH 7.0, 320 mM KF, 0.08% BSA). After a 2-h incubation at room temperature, the fluorescence by FRET was measured at 665 and 620 nm by a SynergyH4 plate reader (Biotek). The binding inhibitory activity was shown by a decrease in 665 nm fluorescence relative to 620 nm. IC50 values were determined from a dose response curve.

Row | IC50 | SMILES
5 | 300 to 3000 nM | CC(=O)Oc1nc2ncn(Cc3ccc(F)cc3)c2cc1-c1c(C)noc1C [compound 80, 6-(3,5-dimethylisoxazol-4-yl)-1-(4-fluorobenzyl)-1H-imidazo[4,5-b]pyridin-5-yl acetate]
6 | ≤ 300 nM | Cc1noc(C)c1-c1cnc2nc(NCCN3CCCCC3)n(Cc3ccccc3)c2c1 [compound 239, 1-benzyl-6-(3,5-dimethylisoxazol-4-yl)-N-(2-(piperidin-1-yl)ethyl)-1H-imidazo[4,5-b]pyridin-2-amine]
7 | ≤ 300 nM | Cc1noc(C)c1-c1cnc2nc(NCC(C)(C)O)n(Cc3ccccc3)c2c1 [compound 237, 1-((1-benzyl-6-(3,5-dimethylisoxazol-4-yl)-1H-imidazo[4,5-b]pyridin-2-yl)amino)-2-methylpropan-2-ol]
8 | 300 to 3000 nM | CC(=O)Nc1cc(-c2ccnn2C)cc2c1n(C)c(=O)n2Cc1ccccc1 [compound 204, N-(1-benzyl-3-methyl-6-(1-methyl-1H-pyrazol-5-yl)-2-oxo-2,3-dihydro-1H-benzo[d]imidazol-4-yl)acetamide]
9 | ≤ 300 nM | Cc1noc(C)c1-c1cc([N+](=O)[O-])c2[nH]c(=O)n([C@H](C)c3ccccc3)c2c1 [compound 240, (R)-6-(3,5-dimethylisoxazol-4-yl)-4-nitro-1-(1-phenylethyl)-1H-benzo[d]imidazol-2(3H)-one]
10 | 300 to 3000 nM | Cc1noc(C)c1-c1cnc2[nH]c(=O)n(Cc3ccc(Cl)c(Cl)c3)c2c1 [compound 101, 1-(3,4-dichlorobenzyl)-6-(3,5-dimethylisoxazol-4-yl)-1H-imidazo[4,5-b]pyridin-2(3H)-one]
11 | 300 to 3000 nM | Cn1nccc1-c1ccc2c(c1)N(Cc1ccccc1)CC(=O)N2 [compound 166, 4-benzyl-6-(1-methyl-1H-pyrazol-5-yl)-3,4-dihydroquinoxalin-2(1H)-one]
12 | ≤ 300 nM | CCNc1nc2ncc(-c3c(C)noc3C)cc2n1Cc1ccccc1 [compound 107, 1-benzyl-6-(3,5-dimethylisoxazol-4-yl)-N-ethyl-1H-imidazo[4,5-b]pyridin-2-amine]
13 | ≤ 300 nM | Cc1noc(C)c1-c1cc(N)c2[nH]c(=O)n(CC3CC3)c2c1 [compound 161, 4-amino-1-(cyclopropylmethyl)-6-(3,5-dimethylisoxazol-4-yl)-1H-benzo[d]imidazol-2(3H)-one]
14 | 300 to 3000 nM | Cn1nccc1-c1cnc2nc(N3CCOCC3)n(Cc3ccccc3)c2c1 [compound 175, 4-(1-benzyl-6-(1-methyl-1H-pyrazol-5-yl)-1H-imidazo[4,5-b]pyridin-2-yl)morpholine]
15 | ≤ 300 nM | CNc1nc2ncc(-c3c(C)noc3C)cc2n1Cc1ccc(F)cc1 [compound 232, 6-(3,5-dimethylisoxazol-4-yl)-1-(4-fluorobenzyl)-N-methyl-1H-imidazo[4,5-b]pyridin-2-amine]
16 | 3000 to 30000 nM | Cc1noc(C)c1-c1cc(Br)c2c(c1)nc(C)n2CCCc1ccccc1 [compound 188, 4-(7-bromo-2-methyl-1-(3-phenylpropyl)-1H-benzo[d]imidazol-5-yl)-3,5-dimethylisoxazole]
17 | ≤ 300 nM | CNc1nc2ncc(-c3c(C)noc3C)cc2n1Cc1ccc(Cl)cc1 [compound 233, 1-(4-chlorobenzyl)-6-(3,5-dimethylisoxazol-4-yl)-N-methyl-1H-imidazo[4,5-b]pyridin-2-amine]
18 | 3000 to 30000 nM | Cc1nn(C)c(C)c1-c1cc(N)c2nc(C)n(Cc3ccccc3)c2c1 [compound 184, 1-benzyl-2-methyl-6-(1,3,5-trimethyl-1H-pyrazol-4-yl)-1H-benzo[d]imidazol-4-amine]
19 | ≤ 300 nM | Cc1noc(C)c1-c1cnc2nc(NCC3CCCCC3)n(Cc3ccccc3)c2c1 [compound 225, 1-benzyl-N-(cyclohexylmethyl)-6-(3,5-dimethylisoxazol-4-yl)-1H-imidazo[4,5-b]pyridin-2-amine]
20 | 300 to 3000 nM | Cc1noc(C)c1-c1cc(Br)c2nc(C)n(CCOc3ccccc3)c2c1 [compound 189, 4-(4-bromo-2-methyl-1-(2-phenoxyethyl)-1H-benzo[d]imidazol-6-yl)-3,5-dimethylisoxazole]

Row | IC50 | SMILES
21 | ≤ 300 nM | Cc1noc(C)c1-c1cnc2nc(NCc3cnccn3)n(Cc3ccccc3)c2c1 [compound 229, 1-benzyl-6-(3,5-dimethylisoxazol-4-yl)-N-(pyrazin-2-ylmethyl)-1H-imidazo[4,5-b]pyridin-2-amine]
22 | ≤ 300 nM | Cc1noc(C)c1-c1cnc2nc(NC3COC3)n(Cc3ccccc3)c2c1 [compound 227, 1-benzyl-6-(3,5-dimethylisoxazol-4-yl)-N-(oxetan-3-yl)-1H-imidazo[4,5-b]pyridin-2-amine]
23 | 300 to 3000 nM | Cc1noc(C)c1-c1cc(Br)c2c(c1)nc(C)n2CCOc1ccccc1 [compound 190, 4-(7-bromo-2-methyl-1-(2-phenoxyethyl)-1H-benzo[d]imidazol-5-yl)-3,5-dimethylisoxazole]
24 | ≤ 300 nM | Cc1noc(C)c1-c1cnc2nc(NCCN3CCN(C)CC3)n(Cc3ccccc3)c2c1 [compound 231, 1-benzyl-6-(3,5-dimethylisoxazol-4-yl)-N-(2-(4-methylpiperazin-1-yl)ethyl)-1H-imidazo[4,5-b]pyridin-2-amine]
25 | ≤ 300 nM | Cc1noc(C)c1-c1cc([N+](=O)[O-])c2nc(NCc3ccccc3)n(Cc3ccccc3)c2c1 [compound 147, N,1-dibenzyl-6-(3,5-dimethylisoxazol-4-yl)-4-nitro-1H-benzo[d]imidazol-2-amine]
26 | ≤ 300 nM | Cc1noc(C)c1-c1cnc2nc(NC3CCCCC3)n(Cc3ccccc3)c2c1 [compound 234, 1-benzyl-N-cyclohexyl-6-(3,5-dimethylisoxazol-4-yl)-1H-imidazo[4,5-b]pyridin-2-amine]
27 | ≤ 300 nM | Cc1noc(C)c1-c1cnc2nc(NCC3CCOCC3)n(Cc3ccccc3)c2c1 [compound 230, 1-benzyl-6-(3,5-dimethylisoxazol-4-yl)-N-((tetrahydro-2H-pyran-4-yl)methyl)-1H-imidazo[4,5-b]pyridin-2-amine]
28 | ≤ 300 nM | Cc1noc(C)c1-c1cnc2nc(NC3CCN(C)CC3)n(Cc3ccccc3)c2c1 [compound 235, 1-benzyl-6-(3,5-dimethylisoxazol-4-yl)-N-(1-methylpiperidin-4-yl)-1H-imidazo[4,5-b]pyridin-2-amine]
29 | ≤ 300 nM | COCCCNc1nc2ncc(-c3c(C)noc3C)cc2n1Cc1ccccc1 [compound 226, 1-benzyl-6-(3,5-dimethylisoxazol-4-yl)-N-(3-methoxypropyl)-1H-imidazo[4,5-b]pyridin-2-amine]
30 | ≤ 300 nM | Cc1noc(C)c1-c1cnc2nc(NC3CCC(N)CC3)n(Cc3ccccc3)c2c1 (centres unmarked) [compound 224, N1-(1-benzyl-6-(3,5-dimethylisoxazol-4-yl)-1H-imidazo[4,5-b]pyridin-2-yl)cyclohexane-1,4-diamine]
31 | ≤ 300 nM | Cc1noc(C)c1-c1cnc2nc(Oc3cccnc3)n(Cc3ccccc3)c2c1 [compound 236, 4-(1-benzyl-2-(pyridin-3-yloxy)-1H-imidazo[4,5-b]pyridin-6-yl)-3,5-dimethylisoxazole]
32 | 300 to 3000 nM | Cc1noc(C)c1-c1cc(Br)c2nc(C)n(CCCc3ccccc3)c2c1 [compound 187, 4-(4-bromo-2-methyl-1-(3-phenylpropyl)-1H-benzo[d]imidazol-6-yl)-3,5-dimethylisoxazole]
33 | ≤ 300 nM | Cc1noc(C)c1-c1cnc2[nH]c(=O)n(Cc3ccc(F)cc3)c2c1 [compound 228, 6-(3,5-dimethylisoxazol-4-yl)-1-(4-fluorobenzyl)-1H-imidazo[4,5-b]pyridin-2(3H)-one]
34 | ≤ 300 nM | Cc1noc(C)c1-c1cnc2nc(NCCN3CCCC3)n(Cc3ccccc3)c2c1 [compound 238, 1-benzyl-6-(3,5-dimethylisoxazol-4-yl)-N-(2-(pyrrolidin-1-yl)ethyl)-1H-imidazo[4,5-b]pyridin-2-amine]
35 | 300 to 3000 nM | COc1c(-c2c(C)noc2C)ccc2nc(C(F)(F)F)n(Cc3ccccc3)c12 [compound 241, 4-(1-benzyl-7-methoxy-2-(trifluoromethyl)-1H-benzo[d]imidazol-6-yl)-3,5-dimethylisoxazole]
